According to EPA's ToxRefDB 2:

Experiments:
rat [1] = conditions: Prenatal developmental toxicity study, wistar, Oral, Feed, dose end: 21 GD
rat [2] = conditions: Prenatal developmental toxicity study, wistar, Oral, Gavage/Intubation, dose end: 20 GD
rat [3] = conditions: Chronic toxicity, sprague dawley, Oral, Feed, dose end: 2 year, group: systemic
dog [4] = conditions: Sub-acute repeat dose toxicity, beagle, Oral, Gavage/Intubation, dose end: 4 week, group: systemic
rat [5] = conditions: Sub-acute repeat dose toxicity, sprague dawley, Oral, Gavage/Intubation, dose end: 1 month, group: systemic
rat [6] = conditions: Combined chronic toxicity/carcinogenicity, sprague dawley, Oral, Feed, dose end: 2 year
dog [7] = conditions: Chronic toxicity, beagle, Oral, Feed, dose end: 52 week
mouse = conditions: Combined chronic toxicity/carcinogenicity; cd1; Oral; Feed; dose end: 95 week; group: systemic; systemic / in life observation / body weight / body weight gain
rabbit = conditions: Prenatal developmental toxicity study, new zealand white, Oral, Gavage/Intubation, dose end: 19 GD
[8] = group: developmental, systemic / in life observation / body weight / fetal weight
[9] = group: maternal, reproductive / reproductive performance / postimplantation loss / postimplantation loss + reproductive / reproductive performance / …
[10] = group: developmental, developmental / developmental malformation / great vessels / [other] + developmental / developmental malformation / bone / fused + …
[11] = group: maternal, reproductive / offspring survival early / litter viability other / total litter loss + systemic / in life observation / body weight / body …
[12] = systemic / pathology microscopic / pituitary gland / adenoma/carcinoma combined + systemic / in life observation / body weight / body weight…
[13] = systemic / clinical chemistry / alanine aminotransferase (alt/sgpt) / alanine aminotransferase (alt/sgpt) + systemic / hematology / blood …
[14] = systemic / in life observation / body weight / body weight gain + systemic / in life observation / food consumption / food consumption
[15] = systemic / in life observation / body weight / body weight gain + systemic / in life observation / food consumption / food consumption + …
[16] = group: cholinesterase, cholinesterase / cholinesterase / cholinesterase / brain cholinesterase (che)
[17] = group: cholinesterase, cholinesterase / cholinesterase / cholinesterase / brain cholinesterase (che) + cholinesterase / cholinesterase / cholinesterase / plasma …
[18] = group: systemic, systemic / in life observation / body weight / body weight + systemic / in life observation / body weight / body weight gain
[19] = group: cholinesterase, cholinesterase / cholinesterase / cholinesterase / cholinesterase (che) + cholinesterase / cholinesterase / cholinesterase / plasma …
[20] = group: systemic, systemic / in life observation / clinical signs / [other] + systemic / in life observation / clinical signs / labored respiration + systemic…
[21] = group: developmental, developmental / developmental landmark / incisor eruption / incisor eruption + developmental / developmental malformation / bone / absent + …
[22] = group: maternal, systemic / in life observation / body weight / body weight gain + systemic / in life observation / food consumption / food efficiency
[23] = group: maternal, systemic / in life observation / body weight / body weight gain + systemic / in life observation / food consumption / food efficiency + …

## O=c1c(-c2ccc(O)cc2)coc2cc(O)cc(O)c12 [Genistein]
Rat [1]; [8]
  LEL: 500 mg/kg/day
  LOAEL: > 500 mg/kg/day
  NEL: 100 mg/kg/day
  NOAEL: ≥ 500 mg/kg/day
Rat [1]; [9]
  LEL: 500 mg/kg/day
  LOAEL: > 500 mg/kg/day
  NEL: 100 mg/kg/day
  NOAEL: ≥ 500 mg/kg/day
Rat [2]; group: developmental, developmental / developmental malformation / great vessels / [other]
  LEL: 150 mg/kg/day
Rat [2]; [10]
  LOAEL: > 1000 mg/kg/day
  NEL: 20 mg/kg/day
  NOAEL: ≥ 1000 mg/kg/day
Rat [2]; [11]
  LEL: 1000 mg/kg/day
  LOAEL: > 1000 mg/kg/day
  NEL: 150 mg/kg/day
  NOAEL: ≥ 1000 mg/kg/day
Rat [3]; systemic / organ weight / pituitary gland / absolute + systemic / organ weight / pituitary gland / relative to body weight
  NEL: 0.25 mg/kg/day
Rat [3]; systemic / organ weight / pituitary gland / absolute + systemic / organ weight / pituitary gland / relative to body weight + systemic / …
  LEL: 5 mg/kg/day
Rat [3]; [12]
  LOAEL: > 25 mg/kg/day
  NOAEL: ≥ 25 mg/kg/day

## CC(=O)O.COCCOc1cc2cc(C(=O)NC3CCN(C(C)C)CC3)n(CC(=O)Nc3ccc(Cl)cn3)c2cn1
Dog [4]; [13]
  LOAEL: 75 mg/kg/day
  NEL: 3 mg/kg/day
  NOAEL: 15 mg/kg/day
Dog [4]; systemic / organ weight / liver / absolute + systemic / organ weight / liver / relative to body weight
  LEL: 15 mg/kg/day
Rat [5]; [14]
  LEL: 10 mg/kg/day
  NEL: < 10 mg/kg/day
Rat [5]; [15]
  LOAEL: 30 mg/kg/day
  NOAEL: 10 mg/kg/day

## CNC(=O)Oc1cccc(N=CN(C)C)c1.Cl [Formetanate hydrochloride]
Rat [6]; [16]
  LEL: 0.45 mg/kg/day
  NEL: < 0.45 mg/kg/day
Rat [6]; [17]
  LOAEL: > 12 mg/kg/day
  NOAEL: ≥ 12 mg/kg/day
Rat [6]; group: systemic, systemic / in life observation / body weight / body weight
  LOAEL: 12 mg/kg/day
Rat [6]; [18]
  LEL: 12 mg/kg/day
  NEL: 2.3 mg/kg/day
  NOAEL: 2.3 mg/kg/day
Dog [7]; [19]
  LEL: 1.74 mg/kg/day
  LOAEL: 1.74 mg/kg/day
  NEL: 0.37 mg/kg/day
  NOAEL: 0.37 mg/kg/day
Dog [7]; [20]
  LEL: 1.74 mg/kg/day
  LOAEL: 1.74 mg/kg/day
  NEL: 0.37 mg/kg/day
  NOAEL: 0.37 mg/kg/day
mouse
  LEL: 70 mg/kg/day
  LOAEL: 70 mg/kg/day
  NEL: 7 mg/kg/day
  NOAEL: 7 mg/kg/day
rabbit; [21]
  LEL: 15 mg/kg/day
  LOAEL: 15 mg/kg/day
  NEL: 5 mg/kg/day
  NOAEL: 5 mg/kg/day
rabbit; [22]
  LEL: 15 mg/kg/day
  LOAEL: 15 mg/kg/day
rabbit; [23]
  NEL: 5 mg/kg/day
  NOAEL: 5 mg/kg/day
